Experimental data taken from paper PMC8752738, “A propolis-derived small molecule ameliorates metabolic syndrome in obese mice by targeting the CREB/CRTC2 transcriptional complex” (Nature Communications, 2022).
“And” between values parts separate entries of the source, which are not always exact repeats. Equal values may be shown once.

Experiments:
[1] = target: T1, CREB / HA-CRTC2 interaction (Mus musculus, UniProt Q01147); test: Co-immunoprecipitation of HA-CRTC2 with endogenous CREB, primary hepatocytes; assay type: cell-based; conditions: for HA/CREB in CREB-COIP fraction: Fig 2b replicates, AD-HA-CRTC2 +
T1 construct: expressed in transfected cells; host or cells: mouse primary hepatocytes infected with Ad-HA-Crtc2; CREB is endogenous
T1 sequence (Q01147 whole entry): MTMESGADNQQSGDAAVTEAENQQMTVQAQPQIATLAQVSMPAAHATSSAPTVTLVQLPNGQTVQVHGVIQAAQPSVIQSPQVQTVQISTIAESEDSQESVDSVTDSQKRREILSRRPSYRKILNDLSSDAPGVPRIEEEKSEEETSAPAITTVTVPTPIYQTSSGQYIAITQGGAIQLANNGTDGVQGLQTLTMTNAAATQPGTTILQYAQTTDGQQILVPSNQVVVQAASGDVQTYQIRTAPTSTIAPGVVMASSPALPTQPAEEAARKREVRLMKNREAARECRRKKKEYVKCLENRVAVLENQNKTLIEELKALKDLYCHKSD
Protocol: Fig. 2 APC blocks interaction between CREB and CRTC2. a Analysis of GST-CREB immunoprecipitated with overexpressed FLAG-CRTC2 from the lysates of HEK293T cells. APC (10 μM) was added to the culture media for 1 h and the following IP mixture. The relative gray density of FLAG in GST-pull-down fraction is shown as a bar graph (bottom). One of three independent experiments is presented (top, n = 3). Data are represented as mean ± SEM); P values were determined by one-way ANOVA followed Dunnett’s multiple comparisons test. b Analysis of HA-CRTC2 immunoprecipitated with endogenous CREB from primary hepatocyte lysates. APC (10 μM) was added to the culture media for 1-h before 30-min of stimulation with glucagon (Gluc, 100 nM) and the following IP mixture as indicated. Top panel presents one of three independent experiments, and the relative gray density of HA in CREB-IP-faction is shown as a bar graph (bottom, n = 3). Data are represented as mean ± SEM; P values were determined by one-way ANOVA followed Dunnett’s multiple comparisons test. c Immunoblotting analysis of endogenous CREB, CRTC2, and CBP interaction by an anti-CRTC2 antibody from the lysate of primary hepatocytes. APC (10 μM) was added to the culture media for 1-h before 30-min stimulation with glucagon. Related CREB and CBP normalized by CRTC2, respectively, in CRTC2-IP fractions. The top panel presents one of three independent experiments, and the relative gray density of CREB and CBP normalized to CRTC2 in the CRTC2-IP-faction is shown as a bar graph (bottom, n = 3). Data are represented as mean ± SEM; P values were determined by two-way ANOVA followed Bonferroni’s multiple comparisons test. d Immunoblotting analysis of protein GST-CREB recovered HIS-CRTC2-S171A proteins purified from E. coli. The addition of APC (5, 10, or 50 μM) in pull-down mixtures is indicated. The top part presents one of three independent experiments, and the relative gray density of HIS normalized to GST in GST-pull-down faction is shown as a bar graph (bottom, n = 3). Data are represented as mean ± SEM; P values were determined by one-way ANOVA followed Dunnett’s multiple comparisons test (compared with APC = 0).
Immunoblotting and immunoprecipitation assays were performed as previously described, with antibodies recognizing CREB, Ser133-P-CREB, AMPK, P-AMPK, AKT, P-AKT (Cell Signaling), PGC-1α (Merck), CRTC2 (Calbiochem), PCK1 (Santa Cruz), SREBP1 (Santa Cruz), SREBP2 (BD), HA (Convance), LXRα (Santa Cruz), FLAG (Sigma), GST (Covance), HIS (Abmart), GAPDH (AOGMA), α-TUBULIN (Abmart), β-ACTIN (Abmart), and other antibodies (Supplementary Table 3). For immunostaining assays, primary cultured hepatocytes seeded on coverslips were fixed with 4% paraformaldehyde for 20 min, permeabilized with 0.3% Triton X-100 in PBS, and then blocked by 5% normal goat serum and 0.3% Triton X-100 in PBS, followed by incubation with anti-CREB (1:1000), anti-P-CREB (1:1000), or anti-HA (1:3000) antibodies for 1 h at 4 °C. Slides were then washed, and after washing, slides were incubated with fluorochrome-conjugated secondary antibodies (Invitrogen). Slides were then washed and mounted with Vectashield mounting media containing 4, 6-diamidino-2-phenylindole (DAPI).

Daily food intake = assay type: in vivo, mouse; conditions: for foodintake in DIO, mean / foodintake in DIO: DIO mice; for foodintake in DIO, mean: group mean, n=6; for foodintake in DIO: individual values; for foodintake of db/db: single animals; for foodintake of db/db, group mean: mean of APC group, N=5
HEK293T cells = test: MTT assay, HEK293T cells; assay type: cell-based, human; conditions: Supp. Fig.10 b; individual replicates; Ctrl about 100
Protocol: 1 Supplementary Figure 10. A57 is novel inhibitor of the CREB/CRTC2 protein complex.
2 a) The inhibitory-activity of A57 as determined by two-hybrid reporter assay. HEK293T cells were
3 co-transfected with CREB/CRTC2 two-hybrid reporter system plasmids, following incubation with
4 indicated small molecules (10 µM) overnight before luciferase reporter assays (n=4 per treatment).
5 One of three independent experiments is shown here. Data are represented as mean ± SEM. *,
6 p < 0.05; **, p < 0.01; p values were determined by one-way ANOVA followed Dunnett’s multiple
8 b) Combinatorial analysis of the cell toxicity and inhibitory activity of A57. The CREB/CRTC2-two
9 hybrid reporter activity (as a normalized percentage) is the X-axis, and the cell activity tested by MTT
10 assay (as a normalized percentage) is the Y-axis. n=3.
11 c) Immunoblot of P-CREB and CRTC2 de-phosphorylation in primary hepatocytes incubated with
12 A57 and APC (10 µM) 1-h prior to glucagon (100 nM) stimulation for 30 min. One result from three
13 experiments is shown here (top), and relative P-CREB normalized by CREB is presented as a bar
14 graph (bottom, n=3). […]
15 values were determined by two-way ANOVA followed Bonferroni’s multiple comparisons test. […]
18 as mean ± SEM. ns, p > 0.05; *, p < 0.05; **, p < 0.01; p values were determined by two-way ANOVA […]

CC(C)=CCc1cc(C=CC(=O)O)cc(CC=C(C)C)c1O [APC, 3,5-diprenyl-4-hydroxycinnamic acid]
HA/CREB in CREB-COIP fraction ([1]; APC +, Gluc +, APC in IP system +): 93.4971 and 123.554 and 124.784
HA/CREB in CREB-COIP fraction ([1]; APC +, Gluc +, APC in IP system -): 234.39 and 222.083 and 222.525
HA/CREB in CREB-COIP fraction ([1]; APC +, Gluc -, APC in IP system +): 106.115 and 87.7697 and 106.142
HA/CREB in CREB-COIP fraction ([1]; APC +, Gluc -, APC in IP system -): 166.202 and 169.06 and 171.069
HA/CREB in CREB-COIP fraction ([1]; APC -, Gluc +, APC in IP system +): 192.388 and 190.79 and 193.652
HA/CREB in CREB-COIP fraction ([1]; APC -, Gluc -, APC in IP system +): 107.959 and 107.638 and 128.065
HA-tagged CRTC2 immunoprecipitated by anti-CREB antibody ([1]; primary hepatocytes, with or without glucagon, APC 10 μM): greatly decreased
foodintake in DIO, mean (Daily food intake; APC 10mg/kg): 3.935 g/mouse/day
foodintake in DIO (Daily food intake; APC 10mg/kg): 3.44 g/mouse/day and 4.55 g/mouse/day and 3.83 g/mouse/day and 3.87 g/mouse/day and 4.39 g/mouse/day and 3.53 g/mouse/day
foodintake in DIO, mean (Daily food intake; APC 20mg/kg): 3.517 g/mouse/day
foodintake in DIO (Daily food intake; APC 20mg/kg): 3.89 g/mouse/day and 3.58 g/mouse/day and 3.67 g/mouse/day and 3.06 g/mouse/day and 3.73 g/mouse/day and 3.17 g/mouse/day
foodintake of db/db (Daily food intake; db/db mice, day 1): 6.30 g/per mouse/24h and 5.90 g/per mouse/24h and 7.80 g/per mouse/24h and 7.20 g/per mouse/24h and 6.43 g/per mouse/24h
foodintake of db/db, group mean (Daily food intake; db/db mice, day 2): 6.34 g/per mouse/24h
foodintake of db/db (Daily food intake; db/db mice, day 2): 5.90 g/per mouse/24h and 6.90 g/per mouse/24h and 7.10 g/per mouse/24h and 7.50 g/per mouse/24h and 6.30 g/per mouse/24h
foodintake of db/db, group mean (Daily food intake; db/db mice, day 3): 6.44 g/per mouse/24h
foodintake of db/db (Daily food intake; db/db mice, day 3): 6.10 g/per mouse/24h and 7.30 g/per mouse/24h and 5.80 g/per mouse/24h and 7.20 g/per mouse/24h and 6.20 g/per mouse/24h
foodintake of db/db, group mean (Daily food intake; db/db mice, day 4): 6.5 g/per mouse/24h
foodintake of db/db (Daily food intake; db/db mice, day 4): 7.40 g/per mouse/24h and 6.30 g/per mouse/24h (2×) and 6.20 g/per mouse/24h and 5.90 g/per mouse/24h
foodintake of db/db, group mean (Daily food intake; db/db mice, day 5): 6.68 g/per mouse/24h
foodintake of db/db (Daily food intake; db/db mice, day 5): 5.70 g/per mouse/24h and 7.20 g/per mouse/24h and 6.80 g/per mouse/24h and 7.90 g/per mouse/24h and 5.80 g/per mouse/24h
foodintake of db/db, group mean (Daily food intake; db/db mice, day 6): 6.9 g/per mouse/24h
foodintake of db/db (Daily food intake; db/db mice, day 6): 8.00 g/per mouse/24h and 6.80 g/per mouse/24h and 6.10 g/per mouse/24h and 7.20 g/per mouse/24h and 6.40 g/per mouse/24h
foodintake of db/db, column mean over days 1-6 (Daily food intake; db/db mice, Mean of APC, two-way RM ANOVA): 6.737 g/per mouse/24h
daily food intake (Daily food intake; obese mice, 2 weeks of APC injection): no significant effects
Cell activity % (HEK293T cells): 95.723% and 93.186% and 92.837%
